# Laboratory results as given in BindingDB's records for doi:10.1016/S0960-894X(97)10006-3 (1997).
# Experiment: Binding affinity for DHP (Dihydropyridine) site of L-type calcium channel of calf heart in the resting state
row,IC50,Structure (SMILES)
1,270 nM,CCOC(=O)C1=C(C)NC(C)=C(C#N)[C@@H]1c1cnccc1-c1cccc2ccccc12
2,100 nM,CCOC(=O)C1=C(C)NC(C)=C(C#N)[C@@H]1c1cnccc1-c1ccc2ccccc2c1
3,250 nM,CCOC(=O)C1=C(C)NC(C)=C(C#N)[C@@H]1c1cnccc1-c1ccccc1
